Data set [1] deals with Standard Strain H37Rv of mycobacterium tuberculosis. As to the kind of experiment: MIC against standard strain H37Rv by Microplate Alamar Blue Assay (MABA). In kind it is cell-based. To be noted: M. tuberculosis H37Rv, 7H9 medium, 37° C.
The test system of another data set is male BALB/C mice. As to the kind of experiment: Acute toxicity in mice, single oral intragastric administration. In kind it is in vivo. To be noted: observed 7 days. The protocol:
(§1) Experiments on the Acute Toxicity of the Compounds
(§2) The acute toxicities of Compounds 4, 16 and 25 were in vivo evaluated preliminarily in mice. Animal: male BALB/C mice, 18-20 g/mouse, 3 mice for blank control group, and 5 mice for each of test groups.
(§3) Method: Suspensions of Compound 25: 49 mg/ml (depended on the total amount of the compound provided); Compounds 4 and 16: 50 mg/ml were prepared in 0.5% CMC to separately. Each mouse of the 3 groups was subjected to oral intragastric administration of 0.2 ml of drug, and the doses were separately as follows: Compound 25: 490 mg/kg; and Compounds 4 and 16: 500 mg/kg. The blank control was administered with water. The consciousness, behavior and death of mice were observed every day after administration until 7 days of administration, and the survived mice were dissected after 7 days to observe pathological changes of tissues.

Assay in data set [2]: as above
To be noted: male, BALB/C, mouse, in vivo, single oral intragastric administration, preliminary. In kind it is in vivo. The protocol: as §1, §2, §3

In brackets after ≈: the same amount, converted by molar mass.

A word on the melting point: it is the temperature, or range, at which the solid turns liquid. Broadly, the MIC is the least concentration at which growth counts as inhibited. As usually defined, the LD50 is the dose at which mortality reaches 50%.

For the molecule `COc1cc2ccc(Br)cc2cc1C(c1ccc(C)cc1)C(O)(CCN(C)C)c1cccc2ccccc12` (stereo not shown) [Compound 30, 1-(4-methylphenyl)-2-(1-naphthyl)-1-[2-(7-bromo-3-methoxy)naphthyl]-4-(N,N-dimethylamino)-butan-2-ol], the melting point fell in the range of 189.5 to 190.8 °C. In addition, the MIC in data set [1] was 1.000 µg/mL (≈ 1.76 µM).
In the case of `COc1cc2ccc(Br)cc2cc1C(c1ccc(Cl)cc1)C(O)(CCN(C)C)c1cccc(Br)c1` (stereo not shown) [Compound 16, 1-(4-chlorophenyl)-2-(3-bromophenyl)-1-[2-(7-bromo-3-methoxy)naphthyl]-4-(N,N-dimethylamino)-butan-2-ol], the MIC in data set [1] is 0.184 µg/mL (≈ 0.298 µM). Further, the “death or abnormality of the animals” value with male BALB/C mice (single dose of 500 mg/kg) is “no death nor abnormality”. In addition, in data set [2], the LD50 at 7 days was at least 500 mg/kg.
The molecule `COc1cc2ccccc2cc1C(c1ccc(Cl)cc1)C(O)(CCN(C)C)c1ccc(F)cc1F` (stereo not shown) [Compound 14, 1-(4-chlorophenyl)-2-(2,4-difluorophenyl)-1-[2-(3-methoxy)naphthyl]-4-(N,N-dimethylamino)-butan-2-ol] showed a melting point of 190.6 to 192.4 °C. Further, in data set [1], the MIC came to 0.754 µg/mL (≈ 1.52 µM).
In data set [1], `COc1cc2ccc(Br)cc2cc1C(c1ccc(Cl)cc1)C(O)(CCN(C)C)c1cccc2ccccc12` (single isomer, unassigned) [Compound 4, 1-(4-chlorophenyl)-2-(1-naphthyl)-1-[2-(7-bromo-3-methoxy)naphthyl]-4-(N,N-dimethylamino)-butan-2-ol] showed an MIC of 0.244 µg/mL (≈ 0.414 µM). For the same molecule, the “death or abnormality of the animals” value in the data set on male BALB/C mice (single dose of 500 mg/kg) was “no death nor abnormality”. Moreover, in data set [2], the 50% lethal dose (LD50) at 7 days is at least 500 mg/kg.
The molecule `COc1cc2ccc(Br)cc2cc1C(c1ccccc1)C(O)(CCN(C)C)c1cccc2ccccc12` (stereo not shown) [Compound 25, 1-phenyl-2-(1-naphthyl)-1-[2-(7-bromo-3-methoxy)naphthyl]-4-(N,N-dimethylamino)-butan-2-ol] registered an MIC in data set [1] of 0.594 µg/mL (≈ 1.07 µM). The “death or abnormality of the animals” value with male BALB/C mice (single dose of 490 mg/kg) is on record as “no death nor abnormality”. In data set [2], this molecule returned an LD50 at 7 days of at least 490 mg/kg.

The values above are taken from patent publication US8674136B2, “Aromatic butan-2-ol compounds and preparation and uses thereof” (Institute of Pharmacology and Toxicology Academy of …, priority 2010, dated 2014).
